The source of these data is patent publication US8026368B2, “Hydrazide compounds and thrombopoietin receptor activators” (Nissan Chemical Industries, Ltd., priority 2005, dated 2011).

Experiment [1] has as its target T1, human thrombopoietin receptor (c-mpl) (Homo sapiens, UniProt P40238).
T1 construct: expressed in transfected cells
T1 sequence (P40238 26-635): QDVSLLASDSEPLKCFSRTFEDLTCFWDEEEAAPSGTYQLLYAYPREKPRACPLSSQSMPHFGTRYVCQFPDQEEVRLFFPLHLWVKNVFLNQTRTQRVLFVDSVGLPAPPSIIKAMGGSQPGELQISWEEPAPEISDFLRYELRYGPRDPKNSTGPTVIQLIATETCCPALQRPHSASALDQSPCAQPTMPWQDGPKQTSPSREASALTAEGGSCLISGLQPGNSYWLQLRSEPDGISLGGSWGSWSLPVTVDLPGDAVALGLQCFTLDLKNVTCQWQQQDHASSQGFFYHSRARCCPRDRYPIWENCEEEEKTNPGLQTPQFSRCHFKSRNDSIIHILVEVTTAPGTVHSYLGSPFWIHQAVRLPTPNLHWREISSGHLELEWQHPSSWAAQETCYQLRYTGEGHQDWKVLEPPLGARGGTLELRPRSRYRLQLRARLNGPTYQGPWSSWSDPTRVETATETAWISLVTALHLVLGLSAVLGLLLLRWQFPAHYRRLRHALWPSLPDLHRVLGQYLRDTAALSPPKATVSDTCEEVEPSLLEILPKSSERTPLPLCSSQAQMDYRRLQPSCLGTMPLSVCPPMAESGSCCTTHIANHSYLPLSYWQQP
In words: Stimulation of proliferation of thrombopoietin-dependent cell line UT7/EPO-mpl (WST-8). Type of experiment: cell-based. Particulars: human leukemic cell line UT-7/EPO-mpl, 4 days incubation, WST-8, relative to 10 ng/mL TPO; read-out: EC50 (concentration that yields a growth rate corresponding to 50% of the growth observed in the presence of 10 ng/mL TPO) (converted). Here is the method:
The responses of thrombopoietin receptor to the compounds of the present invention prepared in the Synthetic Examples were assayed using a human leukemic cell line, UT7/EPO-mpl.
UT7/EPO-mpl is a stable transformed cell line obtained by introducing into human leukemic cell line UT7/EPO a vector that induces expression of human thrombopoietin receptor (c-mpl) under control of cytomegalovirus immediate-early promoter by the method of Takatoku et al. (J. Biol. Chem., 272:7259-7263 (1997)). […] These two cell lines were subcultured in IMDM (GIBCO) containing 10% fetal bovine serum (Thermo Electron or BioWest) using a CO2 incubator (5% CO2, 37° C.).
The subcultured cells described above were washed twice with PBS and suspended in IMDM containing 10% fetal bovine serum at a cell density of 6×10^4 cells/ml. The cell suspension was transferred to a 96-well tissue culture plate (CORNING) in 100-μl aliquots. Then either thrombopoietin (Pepro Tech EC) or the compounds of the Synthetic Examples dissolved in dimethyl sulfoxide were diluted 83-fold with IMDM containing 10% fetal bovine serum and added to the aforementioned cell suspension in 20-μl aliquots. The cell suspension was incubated in a CO2 incubator (5% CO2, 37° C.) for 4 days. Cell proliferation was assayed using WST-8 reagent (Kishida Chemical Co., Ltd.) according to instructions by the manufacturer. A 10-μl aliquot of 5 mM WST-8 reagent solution was added to each well of the tissue culture plate, and the plate was incubated at 37° C. for 4 hours. The formazan pigment generated was detected by measuring the absorbance at 450 nm with a 96-well microplate reader (Nihon Molecular Devices, Spectramax 190).
The concentration of each compound that yields a growth rate corresponding to 50% of the growth of human leukemic cell line UT-7/EPO-mpl observed in the presence of 10 ng/mL TPO (EC50) in the test on the compounds of the Synthetic Examples in Assay Example 1 are shown in Table 16.
In general terms: Tetrazolium assays rely on reduction of a dye to a coloured formazan, in cell work by metabolically active cells.

For experiment [2], the target named is T1, human thrombopoietin receptor (c-mpl). Particulars: cell line characterisation, Takatoku et al.; cited from earlier work.
In experiment [3] the test system is UT7/EPO. Conditions: cell line characterisation, Takatoku et al.; cited from earlier work.

For `CC1=NN(c2ccc(C(C)(C)C)cc2)C(=O)/C1=C(/C)NNC(=O)c1ccc(C(=O)NN2CCOCC2)s1` [Example 21], in experiment [1], the EC50 was 1.2 nM. On the same count and under the same terms, the figure for `CC1=NN(c2ccc(C(F)(F)F)cc2)C(=O)/C1=C(/C)NNC(=O)c1ccc(C(=O)NC(C)C)s1` [Example 28] is 0.871 nM; for `CC1=NN(c2ccc(Cl)c(Cl)c2)C(=O)/C1=C(/C)NNC(=O)c1ccc(C(=O)NC(C)C)s1` [Example 37] it is 5.46 nM. Turning to `CNC(=O)c1ccc(C(=O)NN/C(C)=C2\C(=O)N(c3ccc(C(C)(C)C)cc3)N=C2C)s1` [Example 25], in experiment [1], the EC50 was 0.661 nM. In the case of `CC1=NN(c2ccc(C(C)(C)C)cc2)C(=O)/C1=C(/C)NNC(=O)c1ccc(C(=O)N2CCC(N(C)C)C2)s1` (stereo not shown) [Example 18], the EC50 in experiment [1] was 5.03 nM. Consider `CC1=NN(c2ccc(Cl)c(Cl)c2)C(=O)/C1=C(/C)NNC(=O)c1ccc(C(=O)NCc2cccnc2)s1` [Example 43], for which the EC50 in experiment [1] is 4.6 nM.

Regarding `CC1=NN(c2ccc(C(F)(F)F)cc2)C(=O)/C1=C(/C)NNC(=O)c1ccc(C(=O)N2CC(O)C(O)C2)s1` (stereo not shown) [Example 30], the EC50 in experiment [1] is 5.02 nM.

Take `CC1=NN(c2ccc(C(F)(F)F)cc2)C(=O)/C1=C(/C)NNC(=O)c1ccc(C(=O)N2CCC(N(C)C)C2)s1` (stereo not shown) [Example 35]: in experiment [1], the EC50 is 6.93 nM. Regarding `CC1=NN(c2ccc(Cl)c(Cl)c2)C(=O)/C1=C(/C)NNC(=O)c1ccc(C(=O)NCc2ccncc2)s1` [Example 38], the EC50 in experiment [1] is 4.97 nM.

Consider `CCCNC(=O)c1ccc(C(=O)NN/C(C)=C2\C(=O)N(c3ccc(C(C)(C)C)cc3)N=C2C)s1` [Example 27], for which the EC50 in experiment [1] is 1.6 nM. As for `CC1=NN(c2ccc(Cl)c(Cl)c2)C(=O)/C1=C(/C)NNC(=O)c1ccc(C(=O)NCc2ccccn2)s1` [Example 42], the EC50 in experiment [1] is 5.34 nM.

“TPO: Thrombopoietin (Pepro Tech EC), a cytokine consisting of 332 amino acids; reference stimulus at 10 ng/mL”: the “Proliferation of UT7/EPO-mpl cell line in response to TPO” value in experiment [2] was “stimulated”. Further, the “Response of mother cell line UT7/EPO to TPO” value in experiment [3] is on record as “no response”. Consider `CC1=NN(c2ccc(C(C)(C)C)cc2)C(=O)/C1=C(/C)NNC(=O)c1ccc(C(=O)N2CC(O)C(O)C2)s1` (stereo not shown) [Example 13], for which the EC50 in experiment [1] is 1.01 nM. `CC1=NN(c2ccc(C(C)(C)C)cc2)C(=O)/C1=C(/C)NNC(=O)c1ccc(C(=O)N2CCCC2)s1` [Example 15]: the EC50 in experiment [1] is 5.27 nM.

As for `CC1=NN(c2ccc(Cl)c(Cl)c2)C(=O)/C1=C(/C)NNC(=O)c1ccc(C(=O)N2CCC(N3CCCC3)CC2)s1` [Example 41], in experiment [1], the EC50 was 4.75 nM. As for `CC1=NN(c2ccc(Cl)c(Cl)c2)C(=O)/C1=C(/C)NNC(=O)c1ccc(C(=O)NN(C)C)s1` [Example 40], in experiment [1], the EC50 was 5.65 nM. As for `CC1=NN(c2ccc(C(F)(F)F)cc2)C(=O)C1=C(C)NNC(=O)c1ccc(C(=O)N2CCCC2)s1` [Example 32], the EC50 in experiment [1] is 6.53 nM.

With `CNC(=O)c1ccc(C(=O)NN/C(C)=C2\C(=O)N(c3ccc(C)c(C)c3)N=C2C)s1` [Example 10], the EC50 in experiment [1] was 5.17 nM. For the compound `CC1=NN(c2ccc(C)c(C)c2)C(=O)/C1=C(/C)NNC(=O)c1ccc(C(=O)NCc2ccncc2)s1` [Example 2], the EC50 in experiment [1] was 1.63 nM. On the same count and under the same terms, the figure for `COCCNC(=O)c1ccc(C(=O)NN/C(C)=C2\C(=O)N(c3ccc(C(C)(C)C)cc3)N=C2C)s1` [Example 26] is 1.23 nM. For the compound `CC1=NN(c2ccc(C(C)(C)C)cc2)C(=O)/C1=C(/C)NNC(=O)c1ccc(C(=O)NCc2cccnc2)s1` [Example 20], the EC50 in experiment [1] was 0.528 nM.

On to `CC1=NN(c2ccc(Cl)c(Cl)c2)C(=O)/C1=C(/C)NNC(=O)c1ccc(C(=O)N2CC(O)C(O)C2)s1` (stereo not shown) [Example 39], for which the EC50 in experiment [1] is 3.9 nM.

Regarding `CC1=NN(c2ccc(C(F)(F)F)cc2)C(=O)/C1=C(/C)NNC(=O)c1ccc(C(=O)N2CCC(N3CCCC3)CC2)s1` [Example 34], in experiment [1], the EC50 is 4.25 nM. On the same count and under the same terms, the figure for `COC1CN(C(=O)c2ccc(C(=O)NN/C(C)=C3\C(=O)N(c4ccc(C(C)(C)C)cc4)N=C3C)s2)CC1OC` (stereo not shown) [Example 22] is 5.78 nM; for `CC1=NN(c2ccc(C(C)(C)C)cc2)C(=O)/C1=C(/C)NNC(=O)c1ccc(C(=O)NCc2ccccn2)s1` [Example 19] it is 2.64 nM. Regarding `COC1CN(C(=O)c2ccc(C(=O)NN/C(C)=C3\C(=O)N(c4ccc(Cl)c(Cl)c4)N=C3C)s2)CC1OC` (stereo not shown) [Example 44], the EC50 in experiment [1] was 11.3 nM. As to `CC1=NN(c2ccc(C(C)(C)C)cc2)C(=O)/C1=C(/C)NNC(=O)c1ccc(C(=O)NCCC(=O)O)s1` [Example 24], in experiment [1], the EC50 was 5.86 nM. With `CCN(CC)C(=O)c1ccc(C(=O)NN/C(C)=C2\C(=O)N(c3ccc(C(C)(C)C)cc3)N=C2C)s1` [Example 14], the EC50 in experiment [1] is 11.7 nM.

Turning to `CC1=NN(c2ccc(C)c(C)c2)C(=O)/C1=C(/C)NNC(=O)c1ccc(C(=O)NCc2ccccn2)s1` [Example 7], in experiment [1], the EC50 was 3.58 nM. Consider `CC1=NN(c2ccc(C(C)(C)C)cc2)C(=O)/C1=C(/C)NNC(=O)c1ccc(C(=O)NN(C)C)s1` [Example 16], for which, in experiment [1], the EC50 is 3.94 nM.

In the case of `CC1=NN(c2ccc(C(C)(C)C)cc2)C(=O)/C1=C(/C)NNC(=O)c1ccc(C(=O)N2CCC(N3CCCC3)CC2)s1` [Example 17], in experiment [1], the EC50 was 3.99 nM. For the compound `CC1=NN(c2ccc(C)c(C)c2)C(=O)/C1=C(/C)NNC(=O)c1ccc(C(=O)N2CC(O)C(O)C2)s1` (stereo not shown) [Example 3], in experiment [1], the EC50 was 5.63 nM. With `CC1=NN(c2ccc(C(F)(F)F)cc2)C(=O)/C1=C(/C)NNC(=O)c1ccc(C(=O)NN(C)C)s1` [Example 33], in experiment [1], the EC50 was 4.45 nM. In the case of `CC1=NN(c2ccc(C(C)(C)C)cc2)C(=O)/C1=C(/C)NNC(=O)c1ccc(C(=O)NCc2ccncc2)s1` [Example 12], the EC50 in experiment [1] is 0.528 nM. Still for that read-out and setting: as for `CC1=NN(c2ccc(C)c(C)c2)C(=O)/C1=C(/C)NNC(=O)c1ccc(C(=O)N2CCCC2)s1` [Example 4], the figure is 7.52 nM; as for `CC1=NN(c2ccc(C)c(C)c2)C(=O)/C1=C(/C)NNC(=O)c1ccc(C(=O)NN(C)C)s1` [Example 5], 6.16 nM; as for `CC1=NN(c2ccc(C(F)(F)F)cc2)C(=O)/C1=C(/C)NNC(=O)c1ccc(C(=O)NCc2ccncc2)s1` [Example 29], 1.59 nM.

`CC1=NN(c2ccc(C(C)(C)C)cc2)C(=O)/C1=C(/C)NNC(=O)c1ccc(C(=O)NCC(=O)O)s1` [Example 23]: the EC50 in experiment [1] is 6.23 nM.

On to `CC1=NN(c2ccc(C)c(C)c2)C(=O)/C1=C(/C)NNC(=O)c1ccc(C(=O)NCCC(=O)O)s1` [Example 9], for which the EC50 in experiment [1] is 8.89 nM. The same measure, in the same setting: the figure for `CC1=NN(c2ccc(C)c(C)c2)C(=O)/C1=C(/C)NNC(=O)c1ccc(C(=O)NCc2cccnc2)s1` [Example 8] is 0.676 nM. For `CCN(CC)C(=O)c1ccc(C(=O)NN/C(C)=C2\C(=O)N(c3ccc(C(F)(F)F)cc3)N=C2C)s1` [Example 31], in experiment [1], the EC50 was 8.28 nM. With `CC1=NN(c2ccc(C(C)(C)C)cc2)C(=O)/C1=C(/C)NNC(=O)c1ccc(C(=O)NC(C)C)s1` [Example 11], the EC50 in experiment [1] is 1.16 nM.
